Reference: PubChem BioAssay AID264 (DTP/NCI, 2004)
Records with an inconclusive call do not appear.

System: nude mice, LX-1 lung xenograft intrarenal, tumor weight T/C
Assay: NCI In Vivo Anticancer Drug Screen. Data for tumor model Human Lung LX-1 Xenograft (intrarenal inoculation) in NU/NU Swiss (nude) mice
Conditions: endpoint: mean tumor weight change, higher = larger tumour
Method in brief: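 Antitumor effect is expressed as a ratio: the mean tumor measurement of the drug-treated group relative to that of the vehicle-dosed control group.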

CC[PH+](CC)CC[S-].CC[PH+](CC)CC[S-].[Au+].[Au+]
T/C (dose: 40.0 mg/kg/injection, schedule: Q04DX003 (sc), vehicle: Klucel (hydroxypropylcellulose) (HPC)): 105 % of control | T/C (dose: 160.0 mg/kg/injection, schedule: Q04DX003 (sc), vehicle: Klucel (hydroxypropylcellulose) (HPC)): 105 % of control | T/C (dose: 320.0 mg/kg/injection, schedule: Q04DX003 (sc), vehicle: Klucel (hydroxypropylcellulose) (HPC)): 96 % of control

ClC(Cl)(Cl)C1=NCc2nnn(Cc3ccccc3)c2N1
T/C (dose: 300.0 mg/kg/injection, schedule: Q04DX003 (sc), vehicle: saline with Tween-80): 72 % of control | T/C (dose: 600.0 mg/kg/injection, schedule: Q04DX003 (sc), vehicle: saline with Tween-80): 67 % of control | T/C (dose: 1200.0 mg/kg/injection, schedule: Q04DX003 (sc), vehicle: saline with Tween-80): 90 % of control | T/C (dose: 2400.0 mg/kg/injection, schedule: Q04DX003 (sc), vehicle: saline with Tween-80): 36 % of control

C[N+](C)(C)c1ncnc2c1ncn2C1CCCO1 (stereo not drawn)
T/C (dose: 0.25 mg/kg/injection, schedule: Q01DX010 (sc), vehicle: saline): 65 % of control | T/C (dose: 1.0 mg/kg/injection, schedule: Q01DX010 (sc), vehicle: saline): 106 % of control | T/C (dose: 2.0 mg/kg/injection, schedule: Q01DX010 (sc), vehicle: saline): 94 % of control | T/C (dose: 12.5 mg/kg/injection, schedule: Q01DX010 (sc), vehicle: saline): 176 % of control | T/C (dose: 25.0 mg/kg/injection, schedule: Q01DX010 (sc), vehicle: saline): 120 % of control

CC1=C[S+](c2ccccc2)c2cccc3cc4ccccc4c1c23 (stereo not drawn)
T/C (dose: 2.0 mg/kg/injection, schedule: Q04DX003 (sc), vehicle: saline with Tween-80): 102 % of control

CCO/C=C1\SC(=S)N(c2ccccc2C)C1=O
T/C (dose: 100.0 mg/kg/injection, schedule: Q01DX010 (sc), vehicle: saline with Tween-80): 26 % of control | T/C (dose: 200.0 mg/kg/injection, schedule: Q01DX010 (sc), vehicle: saline with Tween-80): 64 % of control | T/C (dose: 400.0 mg/kg/injection, schedule: Q01DX010 (sc), vehicle: saline with Tween-80): 76 % of control | T/C (dose: 800.0 mg/kg/injection, schedule: Q01DX010 (sc), vehicle: saline with Tween-80): 89 % of control

OC(CBr)C(O)C(O)C(O)CBr (stereo not drawn)
T/C (dose: 15.0 mg/kg/injection, schedule: Q01DX010 (sc), vehicle: Klucel (hydroxypropylcellulose) (HPC)): 112 % of control | T/C (dose: 60.0 mg/kg/injection, schedule: Q01DX010 (sc), vehicle: Klucel (hydroxypropylcellulose) (HPC)): 57 % of control | T/C (dose: 200.0 mg/kg/injection, schedule: Q01DX010 (sc), vehicle: Klucel (hydroxypropylcellulose) (HPC)): 89 % of control | T/C (dose: 400.0 mg/kg/injection, schedule: Q01DX010 (sc), vehicle: Klucel (hydroxypropylcellulose) (HPC)): 96 % of control | T/C (dose: 800.0 mg/kg/injection, schedule: Q01DX010 (sc), vehicle: Klucel (hydroxypropylcellulose) (HPC)): 115 % of control

COc1cccc2c1C(=O)c1c(O)c3c(c(O)c1C2=O)C[C@@](O)(C(C)=O)C[C@@H]3OC1CC(N(C)C)C(O)C(C)O1 (stereo partly drawn)
T/C (dose: 2.0 mg/kg/injection, schedule: Q01DX010 (sc), vehicle: water): 200 % of control | T/C (dose: 4.0 mg/kg/injection, schedule: Q01DX010 (sc), vehicle: water): 80 % of control | T/C (dose: 6.0 mg/kg/injection, schedule: Q04DX003 (sc), vehicle: water): 59 % of control | T/C (dose: 12.0 mg/kg/injection, schedule: Q04DX003 (sc), vehicle: water): 88 % of control

OCC1OC(n2cnc3cncnc32)C(O)C1O (stereo not drawn)
T/C (dose: 12.5 mg/kg/injection, schedule: Q04DX003 (sc), vehicle: saline): 89 % of control | T/C (dose: 25.0 mg/kg/injection, schedule: Q04DX003 (sc), vehicle: saline): 118 % of control | T/C (dose: 50.0 mg/kg/injection, schedule: Q04DX003 (sc), vehicle: saline): 69 % of control

COc1cc2c(cc1O)N=C[C@@H]1CCC(O)N1C2=O (mixture of isomers)
T/C (dose: 4.0 mg/kg/injection, schedule: Q01DX010 (sc), vehicle: saline): 213 % of control

COc1cc(NS(C)(=O)=O)ccc1Nc1c2ccccc2nc2ccccc12
T/C (dose: 0.47 mg/kg/injection, schedule: Q01DX010 (sc), vehicle: clinical formulation): 151 % of control | T/C (dose: 0.75 mg/kg/injection, schedule: Q01DX010 (sc), vehicle: other): 99 % of control | T/C (dose: 0.94 mg/kg/injection, schedule: Q01DX010 (sc), vehicle: lactic acid): 84 % of control | T/C (dose: 1.5 mg/kg/injection, schedule: Q01DX010 (sc), vehicle: other): 88 % of control | T/C (dose: 1.88 mg/kg/injection, schedule: Q01DX010 (sc), vehicle: clinical formulation): 110 % of control | T/C (dose: 1.88 mg/kg/injection, schedule: Q01DX010 (sc), vehicle: lactic acid): 109 % of control | T/C (dose: 3.0 mg/kg/injection, schedule: Q01DX010 (sc), vehicle: other): 64 % of control | T/C (dose: 3.75 mg/kg/injection, schedule: Q01DX010 (sc), vehicle: lactic acid): 46 % of control
